Measured values taken from US10597388B2, “Pyridazinone herbicides” (FMC CORPORATION, priority 2014, dated 2020).

Columns and labels:
Experiment in all cases: Test D controlled growth environment herbicide test, pre- and postemergence
Format in all cases: in vivo
[1] = system: field violet (Viola arvensis)
Method in brief: (§1)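 Species sown in silt loam and sprayed preemergence, or grown in peat-based medium to 2–18 cm (1- to 4-leaf stage) and sprayed postemergence, with compounds in non-phytotoxic solvent plus surfactant. Visual injury scored versus controls after 14–21 d in a controlled environment, 0 (no effect) to 100 (complete control).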

[2] = system: oat, wild (wild oat, Avena fatua)
Method in brief: as §1

[3] = system: foxtail, green (green foxtail, Setaria viridis)
Method in brief: as §1

[4] = system: mustard, wild (wild mustard, Sinapis arvensis)
Method in brief: as §1

[5] = system: wheat, winter (winter wheat, Triticum aestivum)
Method in brief: as §1

[6] = system: bluegrass (annual bluegrass, Poa annua)
Method in brief: as §1

[7] = system: barley, spring (spring barley, Hordeum vulgare)
Method in brief: as §1

[8] = system: wheat, spring (spring wheat, Triticum aestivum)
Method in brief: as §1

[9] = system: windgrass (Apera spica-venti)
Method in brief: as §1

[10] = system: pigweed (Amaranthus retroflexus)
Method in brief: as §1

kochia (Kochia scoparia) = system: kochia (Kochia scoparia)
Method in brief: as §1

[11] = system: deadnettle (henbit deadnettle, Lamium amplexicaule)
Method in brief: as §1

[12] = system: Russian thistle (Salsola kali)
Method in brief: as §1

[13] = Postemergence, 31 g ai/ha, scale 0 to 100 (0 no effect, 100 complete control)
[14] = Postemergence, 125 g ai/ha, visual rating on scale 0 (no effect) to 100 (complete control), 14 to 21 d
[15] = Postemergence, 250 g ai/ha, scale 0 to 100 (0 no effect, 100 complete control)
[16] = Preemergence, 125 g ai/ha, scale 0 to 100 (0 no effect, 100 complete control)
[17] = Preemergence, 250 g ai/ha, scale 0 to 100 (0 no effect, 100 complete control)
[18] = postemergence, 62 g ai/ha, scale 0 to 100, 0 no effect, 100 complete control
[19] = Preemergence, 62 g ai/ha, scale 0 to 100 (0 no effect, 100 complete control)

Cc1nn(C)c(=O)c(-c2c(C)sc3ccc(Cl)cc23)c1O [Compound 104]
Field Violet plant response rating [1, 13]: 85 | Plant response rating, Field Violet [1, 14]: 95 | Plant response rating, Field Violet [1, 15]: 98 | Plant response rating (scale of 0 to 100), Field Violet ([1]; Preemergence, 31 g ai/ha): 100 | Plant response rating (scale of 0 to 100), Field Violet ([1]; Preemergence, 62 g ai/ha): 100 | Plant response rating, Field Violet [1, 16]: 95 | Plant response rating, Field Violet [1, 17]: 100 | Plant response rating, Field Violet [1, 18]: 90 | Oat, Wild plant response rating [2, 13]: 85 | Plant response rating, Oat, Wild [2, 14]: 95 | Plant response rating, Oat, Wild [2, 15]: 100 | Plant response rating (scale of 0 to 100), Oat, Wild ([2]; Preemergence, 31 g ai/ha): 75 | Plant response rating (scale of 0 to 100), Oat, Wild ([2]; Preemergence, 62 g ai/ha): 80 | Plant response rating, Oat, Wild [2, 16]: 80 | Plant response rating, Oat, Wild [2, 17]: 100 | Plant response rating, Oat, Wild [2, 18]: 90 | Foxtail, Green plant response rating [3, 13]: 30 | Plant response rating, Foxtail, Green [3, 14]: 85 | Plant response rating, Foxtail, Green [3, 15]: 90 | Plant response rating (scale of 0 to 100), Foxtail, Green ([3]; Preemergence, 31 g ai/ha): 20 | Plant response rating (scale of 0 to 100), Foxtail, Green ([3]; Preemergence, 62 g ai/ha): 70 | Plant response rating, Foxtail, Green [3, 16]: 100 | Plant response rating, Foxtail, Green [3, 17]: 100 | Plant response rating, Foxtail, Green [3, 18]: 70 | Mustard, Wild plant response rating [4, 13]: 70 | Plant response rating, Mustard, Wild [4, 14]: 85 | Plant response rating, Mustard, Wild [4, 15]: 90 | Plant response rating (scale of 0 to 100), Mustard, Wild ([4]; Preemergence, 31 g ai/ha): 10 | Plant response rating (scale of 0 to 100), Mustard, Wild ([4]; Preemergence, 62 g ai/ha): 70 | Plant response rating, Mustard, Wild [4, 16]: 75 | Plant response rating, Mustard, Wild [4, 17]: 95 | Plant response rating, Mustard, Wild [4, 18]: 75 | Wheat, Winter plant response rating [5, 13]: 5 | Plant response rating, Wheat, Winter [5, 14]: 20 | Plant response rating, Wheat, Winter [5, 15]: 25 | Plant response rating (scale of 0 to 100), Wheat, Winter ([5]; Preemergence, 31 g ai/ha): 0 | Plant response rating (scale of 0 to 100), Wheat, Winter ([5]; Preemergence, 62 g ai/ha): 0 | Plant response rating, Wheat, Winter [5, 16]: 5 | Plant response rating, Wheat, Winter [5, 17]: 15 | Plant response rating, Wheat, Winter [5, 18]: 15 | Bluegrass plant response rating [6, 13]: 10 | Plant response rating, Bluegrass [6, 14]: 20 | Plant response rating, Bluegrass [6, 15]: 30 | Plant response rating (scale of 0 to 100), Bluegrass ([6]; Preemergence, 31 g ai/ha): 35 | Plant response rating, Bluegrass [6, 19]: 35 | Plant response rating, Bluegrass [6, 16]: 70 | Plant response rating, Bluegrass [6, 17]: 75 | Plant response rating, Bluegrass [6, 18]: 10 | Barley, Spring plant response rating [7, 13]: 0 | Plant response rating, Barley, Spring [7, 14]: 10 | Plant response rating, Barley, Spring [7, 15]: 15 | Plant response rating (scale of 0 to 100), Barley, Spring ([7]; Preemergence, 31 g ai/ha): 0 | Plant response rating, Barley, Spring [7, 19]: 0 | Plant response rating, Barley, Spring [7, 16]: 5 | Plant response rating, Barley, Spring [7, 17]: 15 | Plant response rating, Barley, Spring [7, 18]: 10 | Wheat, Spring plant response rating [8, 13]: 10 | Plant response rating, Wheat, Spring [8, 14]: 20 | Plant response rating, Wheat, Spring [8, 15]: 30 | Plant response rating (scale of 0 to 100), Wheat, Spring ([8]; Preemergence, 31 g ai/ha): 0 | Plant response rating (scale of 0 to 100), Wheat, Spring ([8]; Preemergence, 62 g ai/ha): 15 | Plant response rating, Wheat, Spring [8, 16]: 35 | Plant response rating, Wheat, Spring [8, 17]: 45 | Plant response rating, Wheat, Spring [8, 18]: 15 | Windgrass plant response rating [9, 13]: 55 | Plant response rating, Windgrass [9, 14]: 85 | Plant response rating, Windgrass [9, 15]: 85 | Plant response rating (scale of 0 to 100), Windgrass ([9]; Preemergence, 31 g ai/ha): 70 | Plant response rating (scale of 0 to 100), Windgrass ([9]; Preemergence, 62 g ai/ha): 75 | Plant response rating, Windgrass [9, 16]: 80 | Plant response rating, Windgrass [9, 17]: 100 | Plant response rating, Windgrass [9, 18]: 75 | Pigweed plant response rating [10, 13]: 100 | Plant response rating, Pigweed [10, 14]: 100 | Plant response rating, Pigweed [10, 15]: 100 | Plant response rating (scale of 0 to 100), Pigweed ([10]; Preemergence, 31 g ai/ha): 60 | Plant response rating (scale of 0 to 100), Pigweed ([10]; Preemergence, 62 g ai/ha): 100 | Plant response rating, Pigweed [10, 16]: 100 | Plant response rating, Pigweed [10, 17]: 100 | Plant response rating, Pigweed [10, 18]: 100 | Kochia plant response rating (kochia (Kochia scoparia); [13]): 95 | Plant response rating, Kochia (kochia (Kochia scoparia); [14]): 100 | Plant response rating, Kochia (kochia (Kochia scoparia); [15]): 100 | Plant response rating (scale of 0 to 100), Kochia (kochia (Kochia scoparia); Preemergence, 31 g ai/ha): 30 | Plant response rating (scale of 0 to 100), Kochia (kochia (Kochia scoparia); Preemergence, 62 g ai/ha): 75 | Plant response rating, Kochia (kochia (Kochia scoparia); [16]): 95 | Plant response rating, Kochia (kochia (Kochia scoparia); [17]): 100 | Plant response rating, Kochia (kochia (Kochia scoparia); [18]): 95 | Deadnettle plant response rating [11, 13]: 45 | Plant response rating, Deadnettle [11, 14]: 70 | Plant response rating, Deadnettle [11, 15]: 85 | Plant response rating (scale of 0 to 100), Deadnettle ([11]; Preemergence, 31 g ai/ha): 65 | Plant response rating (scale of 0 to 100), Deadnettle ([11]; Preemergence, 62 g ai/ha): 80 | Plant response rating, Deadnettle [11, 16]: 80 | Plant response rating, Deadnettle [11, 17]: 100 | Plant response rating, Deadnettle [11, 18]: 50 | Russian Thistle plant response rating [12, 13]: 55 | Plant response rating, Russian Thistle [12, 14]: 65 | Plant response rating, Russian Thistle [12, 15]: 85 | Plant response rating (scale of 0 to 100), Russian Thistle ([12]; Preemergence, 31 g ai/ha): 0 | Plant response rating (scale of 0 to 100), Russian Thistle ([12]; Preemergence, 62 g ai/ha): 10 | Plant response rating, Russian Thistle [12, 16]: 55 | Plant response rating, Russian Thistle [12, 17]: 75 | Plant response rating, Russian Thistle [12, 18]: 60
